According to ChEMBL document CHEMBL1126578, “Synthesis and optical resolution of (R)- and (S)-trans-7-Hydroxy-2-[N-propyl-N-(3'-iodo-2'-propenyl)amino]tetralin: a new D3 dopamine receptor ligand” (J Med Chem, 1993):

Target: D(3) dopamine receptor (Rattus norvegicus) (UniProt P19020)
Test: Saturable binding was tested dopamine receptor D3 in rat striatal membrane homogenate
Type: cell membranes
Conditions: Striatum

Sequence of D(3) dopamine receptor (Rattus norvegicus) (P19020 whole entry): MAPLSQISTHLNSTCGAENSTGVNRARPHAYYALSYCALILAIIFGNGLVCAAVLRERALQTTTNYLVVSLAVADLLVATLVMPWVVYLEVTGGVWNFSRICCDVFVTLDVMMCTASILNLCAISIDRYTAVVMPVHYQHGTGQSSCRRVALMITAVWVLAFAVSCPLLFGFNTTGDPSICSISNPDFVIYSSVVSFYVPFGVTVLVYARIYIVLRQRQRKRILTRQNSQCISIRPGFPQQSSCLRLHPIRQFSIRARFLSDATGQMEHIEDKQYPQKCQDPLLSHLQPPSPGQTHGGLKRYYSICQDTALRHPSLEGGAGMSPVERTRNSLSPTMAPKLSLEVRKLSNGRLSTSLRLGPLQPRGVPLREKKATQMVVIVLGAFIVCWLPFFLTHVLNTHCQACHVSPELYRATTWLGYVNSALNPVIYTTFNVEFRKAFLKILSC

For CCCN(C/C=C/I)C1CCc2ccc(O)cc2C1 (stereo unspecified), the Bmax (fM (mg of protein)-1) was 240.
